The test system of assay [1] is MDA-MB-231. Description: Growth inhibition of human MDA-MB-231 cells by sulforhodamine B assay. Type of assay: functional. A general note: The SRB assay estimates cell density from bound dye.
Assay [2] concerns A549. Put plainly: Growth inhibition of human A549 cells by sulforhodamine B assay. Type of assay: functional.
The test system of assay [3] is HT-29. Description: Growth inhibition of human HT-29 cells by sulforhodamine B assay. Type of assay: functional. The settings on record: for CC50: read-out: LC50 (the source's name).
Assay [4] has as its system A549. Description: Growth inhibition of human A549 cells up to 25 uM by sulforhodamine B assay. Type of assay: functional, cell-based.
For assay [5], the system named is MDA-MB-231. Description: Growth inhibition of human MDA-MB-231 cells up to 25 uM by sulforhodamine B assay. Type of assay: functional, cell-based.
Assay [6] deals with HT-29. Description: Growth inhibition of human HT-29 cells up to 25 uM by sulforhodamine B assay. Type of assay: functional, cell-based.

One may read the GI50 as the concentration at which growth is held to half of that of the control. Low values mean greater sensitivity of the cells, high ones lower sensitivity of the cells. In general, TGI refers to the concentration giving total growth inhibition.

Calls of active or inactive are those of the source. The rule behind the calls is not given here.

On to `C=C(COC(C)=O)[C@H]1CC2=C(C=O)C=C(O2)[C@H]2O[C@]2(C)C[C@@H]2OC(=O)[C@]3(O[C@@H]23)[C@H](OC(C)=O)C1`, for which the figures for the GI50 with MDA-MB-231 [1] and in the assay on A549 [2] were 14.5 µM and 17.9 µM, respectively.

`C=C(C)[C@H]1CC2=C(C=O)C=C(O2)[C@H](OC(C)=O)[C@@](C)(OC(C)=O)C[C@@H]2OC(=O)[C@]3(O[C@@H]23)[C@H](OC(C)=O)C1` [7-EPI-7,8-DI-O-ACETYLLOPHODIOL A]: the figures for the 50% growth inhibitory concentration (GI50) in the assay with HT-29 [3], with MDA-MB-231 [1] and in the assay on A549 [2] were 6.2 µM, 3.7 µM and 3.3 µM, respectively. The values for the TGI in the assay with HT-29 [3] and in the assay with A549 [2] were 6.6 µM and 3.5 µM, respectively. Also, the CC50 with HT-29 [3] stood at 6.9 µM; in the assay with A549 [2] (read-out: LC50 (the source's name)), 3.9 µM.

Consider `C=C(C)[C@@H]1CCC2=C[C@H](C[C@@]3(C)O[C@@H]3C(=O)/C=C(\C)C(=O)C1)OC2=O` [ISOEPOXYLOPHODIONE], for which, in the assay with HT-29 [3], the GI50 came to 4.1 µM, the TGI turned out to be 4.4 µM and the CC50 was 4.9 µM. In addition, in the assay on MDA-MB-231 [1], growth was halved (GI50) at 2.7 µM, the LC50 (50% lethal concentration) came to 4.1 µM and the TGI was found to be 3.2 µM. Besides, in the assay with A549 [2], growth was halved (GI50) at 2.9 µM and total growth inhibition (TGI) required 5.5 µM.

As to `C=C(C)[C@H]1CC2=C(C=O)C=C(O2)[C@@H](O)[C@@](C)(O)C[C@@H]2OC(=O)[C@]3(O[C@@H]23)[C@H](OC(C)=O)C1`, the outcome in the assay with A549 [4], in the assay with MDA-MB-231 [5] and in the assay with HT-29 [6] was inactive.

As to `C=C(C)[C@H]1CC2=C(C=O)C=C(O2)[C@H](O)[C@](C)(O)C[C@@H]2OC(=O)[C@]3(O[C@@H]23)[C@H](OC(C)=O)C1` [LOPHODIOL B], the GI50 in the assay on HT-29 [3] is 14.7 µM.

On to `CC(=O)O[C@@H]1C[C@@H](C2(C)CO2)CC2=C(C=O)C=C(O2)[C@H]2O[C@]2(C)C[C@@H]2OC(=O)[C@]13O[C@@H]23` (stereo not given in full), for which the GI50 with HT-29 [3] amounted to 4.6 µM; with MDA-MB-231 [1] it was 5.8 µM; with A549 [2] it was 6 µM. Also, the values for the TGI in the assay on HT-29 [3] and in the assay with A549 [2] were 6.2 µM and 9.7 µM, respectively. The CC50 in the assay with HT-29 [3] was determined as 9.2 µM.

As for `C=C(C)[C@@H]1CC[C@]2(C)O[C@H]2CC[C@H](C)/C=C/C=C(/C)C(=O)C1`, the result in the assay with A549 [4], in the assay on MDA-MB-231 [5] and in the assay with HT-29 [6] was inactive.

Consider `C=C(C)[C@H]1CC2=C(C=O)C=C(O2)[C@H]2O[C@@]2(C)C[C@@H]2OC(=O)[C@]3(O[C@@H]23)[C@H](OC(C)=O)C1`, for which, in the assay with HT-29 [3], growth was halved (GI50) at 5 µM, total growth inhibition (TGI) required 6 µM and the CC50 turned out to be 8.4 µM. In the assay with MDA-MB-231 [1], this compound came in with a GI50 of 4.8 µM and a TGI of 6.2 µM. Further, in the assay with A549 [2], growth was halved (GI50) at 5.3 µM and the TGI is 8.4 µM.

As for `CC(=O)OCC1([C@H]2CC3=C(C=O)C=C(O3)[C@H]3O[C@]3(C)C[C@@H]3OC(=O)[C@]4(O[C@@H]34)[C@H](OC(C)=O)C2)CO1` (stereo not given in full), the results for the GI50 in the assay on HT-29 [3], in the assay with MDA-MB-231 [1] and in the assay with A549 [2] were 8.2 µM, 5.1 µM and 5.1 µM, respectively. Besides, net growth in the assay with A549 [2] stopped (TGI) at 6.9 µM.

Turning to `C=C(C)[C@@H]1CC2=C(C=O)C=C(O2)[C@@H]2O[C@@]2(C)C[C@H]2OC(=O)[C@@]3(O[C@H]23)[C@@H](OC(C)=O)C1`, the outcome with A549 [4], in the assay with MDA-MB-231 [5] and with HT-29 [6] was inactive.

With `C=C(C)[C@H]1CC2=C(C=O)C=C(O2)[C@H](O)[C@@](C)(O)C[C@@H]2OC(=O)[C@]3(O[C@@H]23)[C@H](OC(C)=O)C1` [7-EPI-LOPHODIOL A], in the assay on HT-29 [3], growth was halved (GI50) at 2.8 µM and the TGI turned out to be 4.8 µM. In the assay with MDA-MB-231 [1], the concentration for 50% growth inhibition (GI50) was found to be 3.2 µM, the LC50 (50% lethal concentration) was 8.5 µM and the TGI was 4.6 µM. In the assay on A549 [2], this compound showed a GI50 of 3.9 µM.
